The source of these data is ChEMBL document CHEMBL1134853, “Essential structural factors of acetogenins, potent inhibitors of mitochondrial complex I” (Bioorg Med Chem Lett, 2002).

SMILES strings stand for the structures.

In the experiment the target is T1, NADH dehydrogenase [ubiquinone] 1 alpha subcomplex subunit 11 (Bos taurus, UniProt Q8HXG6).
T1 sequence (Q8HXG6 whole entry): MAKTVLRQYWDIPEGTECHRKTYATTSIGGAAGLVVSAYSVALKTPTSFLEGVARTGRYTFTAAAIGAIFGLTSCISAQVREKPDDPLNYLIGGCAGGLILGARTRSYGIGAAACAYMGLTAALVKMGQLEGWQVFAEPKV
In words: Inhibitory activity against bovine heart mitochondrial NADH ubiquinone oxidoreductase (complex I).

As usually defined, the IC50 is the midpoint of a concentration-inhibition curve. For the molecule `CCCCCCCCCC[C@@H](O)[C@H]1CC[C@H]([C@H]2CC[C@H]([C@H](O)CCCCCCCCCCCCC3=C[C@H](C)OC3=O)O2)O1` [ISODESAACETYLUVARICIN], half-maximal inhibition (IC50) required 0.9 nM.
Take `C[C@H]1C=C(CCCCCCCCCCCC[C@@H](O)[C@H]2CC[C@H]([C@H]3CC[C@H]([C@@H](C)O)O3)O2)C(=O)O1`: half-maximal inhibition (IC50) was put at 3.1 nM.
